Measurements reported in US20080051413A1, “Nitrophenylpiperazine derivative of xanthine which relaxes tracheal airway and increases respiratory performance” (KAOHSIUNG MEDICAL UNIVERSITY, priority 2006, published 2008).
Values joined by “and” are separate entries in the source; they are usually repeats but may differ in a detail not shown here. Equal entries are not always repeated.

Columns and labels:
[1] = system: guinea pig tracheal smooth muscle cells; assay: Measurement of cAMP in TSMCs; type: cell-based
Description: Cell Culture of Tracheal Smooth Muscle: Guinea pigs (350-450 g) were injected i.p. with a lethal dose of pentobarbital. The tracheas were excised and cut longitudinally through the cartilage. Using a dissecting microscope, TSM strips were dissected from the surrounding parentchyma. The epithelium was removed from the luminal surface, and bands of TSM were gently separated from the underlying connective tissue. Then TSM strips were chopped into small sections (1 mm^3) and incubated in Hanks' balanced salt solution (138 mM NaCl, 4 mM NaHCO3, 5 mM KCl, 0.3 mM KH2PO4, 0.3 mM Na2HPO4, and 1.0 mM glucose) with 0.05% elastase type IV and 0.2% collagenase type IV (Invitrogen, Carlsbad, Calif.) for 30 min at 37_ with gentle shaking. The solution of dissociated smooth muscle cells was centrifuged (6 min at 500 g), and the pellet was resuspended in 1:1 Dulbecco's modified Eagle's medium/Ham's F-12 medium supplemented with 10% fetal bovine serum, 0.244% NaHCO3, and 1% penicillin/streptomycin. Cells were cultured in 25-cm^2 flasks at 37_ in humidified air containing 5% CO2. Confluent cells were detached with 0.25% trypsin-0.02% EDTA at 37_and then subcultured to establish secondary cultures. Cultures were maintained for no more than four passages. They were identified as smooth muscle cells by the typical hill-and-valley appearance, and cellular homogeneity was further confirmed by the presence of smooth muscle specific _-myosin and _-actin immunoreactivity. Indirect immunofluorescence staining for a variety of antigens was carried out by first plating the cells on chamber slides, fixing the cells in 3.7% formaldehyde-phosphate-buffered saline for 10 min, and permeabilizing the cells with phosphate-buffered saline and 0.1% Triton X-100. Cells were then stained with either a mouse monoclonal antibody directed against the amino-terminal 10 amino acids of _-smooth muscle actin or _-myosin (Roche Diagnostics, Indianapolis, Ind.). All cells were stained with fluorescein-labeled goat anti-mouse IgG antibody (Roche Diagnostics).
Measurement of cAMP and cGMP: Intracellular concentrations of cAMP and cGMP in TSMCs were measured as in our previous reports (Wu B N, Lin R J, Lin C Y, Shen K P, Chiang L C, and Chen I J (2001) A xanthine-based KMUP-1 with cyclic GMP enhancing and K^+ channels opening activities in rat aortic smooth muscle. Br J Pharmacol 134:265-274; Lin R J, Wu B N, Lo Y C, Shen K P, Lin Y T, Huang C H, and Chen I J (2002) KMUP-1 relaxes rabbit corpus cavernosum smooth muscle in vitro and in vivo: involvement of cyclic GMP and K(+) channels, Br J Pharmacol 135:1159-1166). In brief, cells were finally grown in 24-well plates (10^5 cells/well). At confluence, monolayer cells were washed with phosphate-buffered saline and then incubated with KMUP-3 (0.01-100 _M) for 20 min at 37_ in medium. […] The reaction was terminated by replacement of medium with 1 ml of ice-cold 1 N hydrochloric acid. Cells suspensions were sonicated and then centrifuged at 2500 g for 15 min at 4_. Then, the supernatants were lyophilized and the cAMP and cGMP of each sample were determined using commercially available radioimmunoassay kits (GE Healthcare, Little Chalfont, Buckinghamshire, UK).

[2] = system: PDE4 purified from human U-937 pronocytic cells; assay: Phosphodiesterase activity, PDE4; type: biochemical; conditions: 10 _M compound, n = 3
Description: Phosphodiesterase Activity: PDE activity was determined by the method of Nicholson et al. (Nicholson C D, Challiss R A, and Shahid M (1991) Differential modulation of tissue function and therapeutic potential of selective inhibitors of cyclic nucleotide phosphodiesterase isonzymes. Trends Pharmaclo Sci 12:19-27). PDE3 and PDE5 purified from human platelets and PDE4 purified from human U-937 pronocytic cells were used. Test compound (10 _M) or vehicle was incubated with 0.2 _g of enzyme and 1 _M cAMP containing 0.01 _M [^3H]cAMP in Tris buffer, pH 7.5, for 20 min at 25_. The reaction was terminated by boiling for 2 min, and the resulting […] was converted to adenosine by the addition of 10 mg/ml snake venom nucleotidase, which is followed by a further incubation at 37_for 10 min. Unhydrolyzed cAMP was bound to AG1-X2 resin, and the remaining [^3H]adenosine in the aqueous phase was quantitated by scintillation counting.

Compound: Cn1c(=O)c2c(ncn2CCN2CCN(c3ccc([N+](=O)[O-])cc3)CC2)n(C)c1=O [KMUP-3]
- cAMP level ([1]; 0.01 _M, 20 min, basal 62.6±6.4): 80.2±2.5 pmol/mg protein
- cAMP level ([1]; 0.1 _M, 20 min, basal 62.6±6.4): 91.3±3.4 pmol/mg protein
- cAMP level ([1]; 1 _M, 20 min, basal 62.6±6.4): 97.9±2.5 pmol/mg protein
- cAMP level ([1]; 10 _M, 20 min, basal 62.6±6.4): 110.7±4.5 pmol/mg protein
- cAMP level in presence of SQ 22536 ([1]; 100 _M compound plus SQ 22536 (100 _M) pretreatment): 74.51 ± 3.18 pmol/mg protein
- cAMP accumulation versus vehicle (FIG. 6) ([1]; 100 _M, 20 min): significant elevations
- cAMP level ([1]; 100 _M, 20 min, basal/vehicle 62.6±6.4): 127.5±4.8 pmol/mg protein and 128.72 ± 4.57 pmol/mg protein
- PDE4 Inhibition [2]: 48 ± 2.1 %
